Results as given in PMC9250534, “Synthesis and direct assay of large macrocycle diversities by combinatorial late-stage modification at picomole scale” (Nature Communications, 2022).
Numbered stars: 1 amine (or outer) side, 2 acyl side, 3 side chain; on linkers, the order of the positions; unused ones are H or OH. Bridge positions count the residues as written; N and C are the ends. Square brackets hold non-standard residues; d marks the D form. Peptide text beside a SMILES is read from it. * marks the point of attachment. ξ: configuration not given here. ξPro(4ξ-NHCOC6H4-4-Cl) = O=C(NC1CNC(C(=O)O)C1)c1ccc(Cl)cc1; Propanoyl(3-(4-Cl-Ph)) = O=C(CCc1ccc(Cl)cc1)*; Isoxazole3carbonyl(5-Me) = Cc1cc(C(=O)*)no1; Indane2carbonyl = O=C(C1Cc2ccccc2C1)*; 2Thenoyl(5-Cl) = O=C(c1ccc(Cl)s1)*; Benzoyl(4-Cl) = O=C(c1ccc(Cl)cc1)*; Morpholinoacetyl = O=C(CN1CCOCC1)*; Cysteamide = C(CS[*:3])N[*:1]; X1 = O=C(/C=C/c1ccccc1)*; Api = NC1(C(=O)O)CCNCC1; Dap = NC[CH](N)C(=O)O; Mpa = O=C(O)CCS

Target: MDM2 (Homo sapiens, UniProt Q00987)
Sequence (Q00987 whole entry): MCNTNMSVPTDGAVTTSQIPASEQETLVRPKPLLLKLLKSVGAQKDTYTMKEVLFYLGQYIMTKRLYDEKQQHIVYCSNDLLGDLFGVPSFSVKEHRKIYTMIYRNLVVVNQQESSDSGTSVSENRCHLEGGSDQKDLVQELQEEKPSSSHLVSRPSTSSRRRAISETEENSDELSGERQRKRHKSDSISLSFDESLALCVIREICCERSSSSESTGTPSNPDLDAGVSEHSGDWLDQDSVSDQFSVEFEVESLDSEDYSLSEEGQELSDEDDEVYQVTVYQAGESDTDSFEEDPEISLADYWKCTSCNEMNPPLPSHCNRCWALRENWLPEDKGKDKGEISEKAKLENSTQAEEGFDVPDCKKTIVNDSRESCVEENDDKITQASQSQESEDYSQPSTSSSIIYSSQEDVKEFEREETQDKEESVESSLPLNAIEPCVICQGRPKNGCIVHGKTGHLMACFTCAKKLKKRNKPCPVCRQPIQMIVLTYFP
Experiment: MDM2 binding screen: displacement of fluorescent p53 peptide probe FP53 (fluorescence polarization)
Conditions: for fraction fluorescent probe displaced, Screen: initial screen; for fraction fluorescent probe displaced, Screen / fraction fluorescent probe displaced, Replicate: crude macrocycle reactions
In short: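 Macrocycle reaction products at a final 10 µM were tested for displacement of a p53-based fluorescent peptide from human MDM2. Fluorescence anisotropy (ex 485/em 535 nm) was read once per macrocycle at 25 °C.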

[1] = 10 µM macrocycle concentration, crude acylated macrocycle (scaffold Mpa-AA1-AA2-AA3 x carboxylic acid), p53-based fluorescent peptide, human MDM2

O=C1CCSSCCNC(=O)C2CCCN2C(=O)C2CN(C(=O)C=Cc3ccccc3)CCN2C(=O)C(Cc2c[nH]c3ccccc23)N1 (mixture of isomers) [X W D7 B1 Acid 91]
fraction fluorescent probe displaced, Screen (Acid 91): -0.08 | fraction fluorescent probe displaced, Replicate (Acid 91, replicate): 0.0168

O=C(/C=C/c1ccccc1)NC[C@@H]1NC(=O)[C@H](Cc2ccccc2)NC(=O)CCSSCCNC(=O)[C@@H]2CCCN2C1=O [X F D3 B1 Acid 91] ([Mpa]F[Dap](X1)P-Cysteamide; disulfide 1-C)
fraction fluorescent probe displaced, Screen (Acid 91): -0.0241 | fraction fluorescent probe displaced, Replicate (Acid 91, replicate): -0.00827

O=C1CCNC(=O)C(Cc2c[nH]c3ccccc23)NC(=O)C2CC(NC(=O)c3ccc(Cl)s3)CN2C(=O)CCSSCCN1 (stereo not shown) [X D5 W B2 Acid 14]
fraction fluorescent probe displaced, Screen (Acid 14): 0.17 | fraction fluorescent probe displaced, Replicate (Acid 14, replicate): 0.17

O=C1CCSSCCNC(=O)C2CN(C(=O)C=Cc3ccccc3)CCN2C(=O)c2cccc(c2)CNC(=O)C(Cc2c[nH]c3ccccc23)N1 (stereo not shown) [X W B5 D7 Acid 91]
fraction fluorescent probe displaced, Screen (Acid 91): 0.16 | fraction fluorescent probe displaced, Replicate (Acid 91, replicate): 0.0168

O=C1CCSSCCNC(=O)c2cccc(c2)CNC(=O)C2CN(C(=O)c3ccc(Cl)cc3)CCN2C(=O)C(Cc2ccccc2)N1 (mixture of isomers) [X F D7 B5 Acid 25]
fraction fluorescent probe displaced, Screen (Acid 25): 0.09 | fraction fluorescent probe displaced, Replicate (Acid 25, replicate): 0.07

O=C1NCCSSCCC(=O)N2CCN(C(=O)c3ccc(Cl)cc3)CC2C(=O)NC(Cc2ccccc2)C(=O)NCc2cccc1c2 (stereo not shown) [X D7 F B5 Acid 25]
fraction fluorescent probe displaced, Screen (Acid 25): 0.12 | fraction fluorescent probe displaced, Replicate (Acid 25, replicate): 0.43

O=C1NC(Cc2c[nH]c3ccccc23)C(=O)N2CCN(C(=O)c3ccc(Cl)cc3)CC2C(=O)NCCSSCCC(=O)N2CCCC1C2 (stereo not shown) [X B4 W D7 Acid 25]
fraction fluorescent probe displaced, Screen (Acid 25): 0.25 | fraction fluorescent probe displaced, Replicate (Acid 25, replicate): 0.17

O=C(/C=C/c1ccccc1)NC[C@@H]1NC(=O)CCSSCCNC(=O)[C@H](Cc2c[nH]c3ccccc23)NC(=O)[C@@H]2CCCN2C1=O [X D3 B1 W Acid 91] ([Mpa][Dap](X1)PW-Cysteamide; disulfide 1-C)
fraction fluorescent probe displaced, Screen (Acid 91): -0.0241 | fraction fluorescent probe displaced, Replicate (Acid 91, replicate): 0.04

O=C1CCSSCCNC(=O)C(CNC(=O)c2ccc(Cl)s2)NC(=O)C2CCCN2C(=O)C(Cc2ccccc2)N1 (stereo not shown) [X F B1 D3 Acid 14] ([Mpa]FP[Dap](2Thenoyl(5-Cl))-Cysteamide; disulfide 1-C; configuration not given here)
fraction fluorescent probe displaced, Screen (Acid 14): 0.17 | fraction fluorescent probe displaced, Replicate (Acid 14, replicate): 0.07

O=C(NC[C@@H]1NC(=O)[C@@H]2CCCN2C(=O)CCSSCCNC(=O)[C@H](Cc2c[nH]c3ccccc23)NC1=O)c1ccc(Cl)s1 [X-B1-D3-W + A14] ([Mpa]P[Dap](2Thenoyl(5-Cl))W-Cysteamide; disulfide 1-C)
fraction fluorescent probe displaced [1]: 0.1687

O=C(/C=C/c1ccccc1)NC[C@@H]1NC(=O)CCSSCCNC(=O)[C@H]2CCCN(C2)C(=O)[C@H](Cc2c[nH]c3ccccc23)NC1=O [X D3 W B4 Acid 91]
fraction fluorescent probe displaced, Screen (Acid 91): 0.14 | fraction fluorescent probe displaced, Replicate (Acid 91, replicate): 0.04

O=C1CCSSCCNC(=O)c2cccc(c2)CNC(=O)[C@H](Cc2ccccc2)NC(=O)C2(CCN(C(=O)c3ccc(Cl)s3)CC2)N1 [X D6 F B5 Acid 14]
fraction fluorescent probe displaced, Screen (Acid 14): -0.0337 | fraction fluorescent probe displaced, Replicate (Acid 14, replicate): 0.12

O=C1NC2(CCN(C(=O)c3ccc(Cl)s3)CC2)C(=O)NCCSSCCC(=O)N2CCC[C@H]2C(=O)N[C@H]1Cc1c[nH]c2ccccc12 [X B1 W D6 Acid 14] ([Mpa]PW[Api](2Thenoyl(5-Cl))-Cysteamide; disulfide 1-C)
fraction fluorescent probe displaced, Screen (Acid 14): 0.20 | fraction fluorescent probe displaced, Replicate (Acid 14, replicate): 0.12

O=C(C=Cc1ccccc1)NCC1NC(=O)C2CCCN(C2)C(=O)CCSSCCNC(=O)C(Cc2c[nH]c3ccccc23)NC1=O (stereo not shown) [X B4 D3 W Acid 91]
fraction fluorescent probe displaced, Screen (Acid 91): 0.81 | fraction fluorescent probe displaced, Replicate (Acid 91, replicate): 0.49

O=C(CN1CCOCC1)NC[C@@H]1NC(=O)[C@@H]2CCCN2C(=O)CCSSCCNC(=O)[C@H](Cc2c[nH]c3ccccc23)NC1=O [X-B1-D3-W + A63] ([Mpa]P[Dap](Morpholinoacetyl)W-Cysteamide; disulfide 1-C)
fraction fluorescent probe displaced [1]: 0.03922

O=C1CCNC(=O)[C@H](Cc2c[nH]c3ccccc23)NC(=O)[C@H](CNC(=O)c2ccc(Cl)s2)NC(=O)CCSSCCN1 [X D3 W B2 Acid 14]
fraction fluorescent probe displaced, Screen (Acid 14): 0.23 | fraction fluorescent probe displaced, Replicate (Acid 14, replicate): 0.20

O=C1CCSSCCNC(=O)c2cccc(c2)CNC(=O)[C@H](Cc2c[nH]c3ccccc23)NC(=O)[C@H](CNC(=O)c2ccc(Cl)s2)N1 [X D3 W B5 Acid 14]
fraction fluorescent probe displaced, Screen (Acid 14): 0.26 | fraction fluorescent probe displaced, Replicate (Acid 14, replicate): 0.22

O=C(/C=C/c1ccccc1)N[C@H]1C[C@H]2C(=O)N[C@@H](Cc3ccccc3)C(=O)NCc3cccc(c3)C(=O)NCCSSCCC(=O)N2C1 [X D5 F B5 Acid 91]
fraction fluorescent probe displaced, Screen (Acid 91): -0.05 | fraction fluorescent probe displaced, Replicate (Acid 91, replicate): -0.00827

O=C(NC[C@@H]1NC(=O)[C@@H]2CCCN2C(=O)CCSSCCNC(=O)[C@H](Cc2ccccc2)NC1=O)C1Cc2ccccc2C1 [X-B1-D3-F + A76] ([Mpa]P[Dap](Indane2carbonyl)F-Cysteamide; disulfide 1-C)
fraction fluorescent probe displaced [1]: 0.03186

O=C(C=Cc1ccccc1)NCC1NC(=O)C(Cc2ccccc2)NC(=O)C2CCCN(C2)C(=O)CCSSCCNC1=O (stereo not shown) [X B4 F D3 Acid 91]
fraction fluorescent probe displaced, Screen (Acid 91): 0.03 | fraction fluorescent probe displaced, Replicate (Acid 91, replicate): -0.00827

O=C1NCCSSCCC(=O)N2CCCC(C2)C(=O)N2CCN(C(=O)c3ccc(Cl)cc3)CC2C(=O)NC1Cc1ccccc1 (stereo not shown) [X B4 D7 F + Acid 25]
fraction fluorescent probe displaced (crude reaction of macrocycle scaffold with Acid 25, (initial screen)): 0.15 | fraction fluorescent probe displaced (crude reaction of macrocycle scaffold with Acid 25, replicate): 0.10

O=C1CCSSCCNC(=O)[C@H]2CCCN(C2)C(=O)[C@H](CNC(=O)c2ccc(Cl)s2)NC(=O)[C@H](Cc2ccccc2)N1 [X F D3 B4 Acid 14]
fraction fluorescent probe displaced, Screen (Acid 14): 0.053 | fraction fluorescent probe displaced, Replicate (Acid 14, replicate): 0.10

O=C(C=Cc1ccccc1)NC1CC2C(=O)NCc3cccc(c3)C(=O)NCCSSCCC(=O)NC(Cc3ccccc3)C(=O)N2C1 (stereo not shown) [X F D5 B5 Acid 91]
fraction fluorescent probe displaced, Screen (Acid 91): -0.05 | fraction fluorescent probe displaced, Replicate (Acid 91, replicate): -0.0333

O=C(NC1CC2C(=O)NCCSSCCC(=O)N3CCCC(C3)C(=O)NC(Cc3ccccc3)C(=O)N2C1)c1ccc(Cl)cc1 (stereo not shown) [X B4 F D5 Acid 25]
fraction fluorescent probe displaced, Screen (Acid 25): 0.0569 | fraction fluorescent probe displaced, Replicate (Acid 25, replicate): 0.12

O=C(NC1CC2C(=O)N3CCCC3C(=O)NC(Cc3ccccc3)C(=O)NCCSSCCC(=O)N2C1)c1ccc(Cl)cc1 (stereo not shown) [X D5 B1 F Acid 25] ([Mpa][ξPro(4ξ-NHCOC6H4-4-Cl)]PF-Cysteamide; disulfide 1-C; configuration not given here)
fraction fluorescent probe displaced, Screen (Acid 25): -0.07 | fraction fluorescent probe displaced, Replicate (Acid 25, replicate): 0.12

O=C1CCSSCCNC(=O)[C@H](CNC(=O)c2ccc(Cl)s2)NC(=O)[C@H](Cc2ccccc2)NC(=O)CCN1 [X B2 F D3 Acid 14]
fraction fluorescent probe displaced, Screen (Acid 14): 0.0241 | fraction fluorescent probe displaced, Replicate (Acid 14, replicate): 0.12

O=C(CCc1ccc(Cl)cc1)NC[C@@H]1NC(=O)[C@@H]2CCCN2C(=O)CCSSCCNC(=O)[C@H](Cc2c[nH]c3ccccc23)NC1=O [X-B1-D3-W + A42] ([Mpa]P[Dap](Propanoyl(3-(4-Cl-Ph)))W-Cysteamide; disulfide 1-C)
fraction fluorescent probe displaced [1]: 0.05096

O=C1CCSSCCNC(=O)[C@H](Cc2ccccc2)NC(=O)[C@@H]2CCCN2C(=O)C2(CCN(C(=O)/C=C/c3ccccc3)CC2)N1 [X D6 B1 F Acid 91] ([Mpa][Api](X1)PF-Cysteamide; disulfide 1-C)
fraction fluorescent probe displaced, Screen (Acid 91): -0.08 | fraction fluorescent probe displaced, Replicate (Acid 91, replicate): -0.11

O=C1NCCSSCCC(=O)N2C[C@@H](NC(=O)c3ccc(Cl)cc3)C[C@H]2C(=O)N[C@@H](Cc2c[nH]c3ccccc23)C(=O)NCc2cccc1c2 [X D5 W B5 Acid 25]
fraction fluorescent probe displaced, Screen (Acid 25): 0.0569 | fraction fluorescent probe displaced, Replicate (Acid 25, replicate): 0.0465

Cc1cc(C(=O)NC[C@@H]2NC(=O)[C@@H]3CCCN3C(=O)CCSSCCNC(=O)[C@H](Cc3ccccc3)NC2=O)no1 [X-B1-D3-F + A3] ([Mpa]P[Dap](Isoxazole3carbonyl(5-Me))F-Cysteamide; disulfide 1-C)
fraction fluorescent probe displaced [1]: 0.08125

O=C1CCSSCCNC(=O)[C@@H]2CCCN2C(=O)[C@H](Cc2c[nH]c3ccccc23)NC(=O)C2(CCN(C(=O)c3ccc(Cl)s3)CC2)N1 [X D6 W B1 Acid 14] ([Mpa][Api](2Thenoyl(5-Cl))WP-Cysteamide; disulfide 1-C)
fraction fluorescent probe displaced, Screen (Acid 14): 0.11 | fraction fluorescent probe displaced, Replicate (Acid 14, replicate): 0.07

O=C1CCSSCCNC(=O)[C@@H]2CCCN2C(=O)[C@H](Cc2ccccc2)NC(=O)C2(CCN(C(=O)c3ccc(Cl)cc3)CC2)N1 [X D6 F B1 Acid 25] ([Mpa][Api](Benzoyl(4-Cl))FP-Cysteamide; disulfide 1-C)
fraction fluorescent probe displaced, Screen (Acid 25): 0.15 | fraction fluorescent probe displaced, Replicate (Acid 25, replicate): 0.22

O=C1CCSSCCNC(=O)C2(CCN(C(=O)c3ccc(Cl)cc3)CC2)NC(=O)C2CCCN2C(=O)C(Cc2c[nH]c3ccccc23)N1 (stereo not shown) [X W B1 D6 Acid 25] ([Mpa]WP[Api](Benzoyl(4-Cl))-Cysteamide; disulfide 1-C; configuration not given here)
fraction fluorescent probe displaced, Screen (Acid 25): 0.19 | fraction fluorescent probe displaced, Replicate (Acid 25, replicate): 0.07
